Laboratory results published in patent US6497872B1, “Neural transplantation using proliferated multipotent neural stem cells and their progeny” (NeuroSpheres Holdings Ltd., priority 1991, dated 2002).

How the values were obtained:
[1] = tested on: Primary striatal cells; experiment: Striatum-derived neurosphere proliferation in response to proliferative and regulatory factors (Example 43, Paradigm 1); format: cell-based, mouse; settings: for Numbers of neurospheres generated (#): decrease (−) or increase (+) per well compared with absence of the REGULATORY FACTOR: 10-12 days; for numbers of neurospheres generated: in all of the proliferative factors or combinations tested
Method: Paradigm 1: Primary striatal cells prepared as outlined in Example 1 were suspended in Complete Medium, without growth factors, plated in 96 well plates (Nunclon) and incubated as described in Example 4. Following a one hour incubation period, a specific proliferative factor, or a combination of proliferative factors including EGF, or bFGF (recombinant human bFGF: R & D Systems), or a combination of EGF and bFGF, or EGF plus FGF plus heparan sulfate (Sigma), or bFGF plus heparan sulfate made up in Complete Medium at a concentration of 20 ng/ml for each of the growth factors and 2 μg/ml for heparan sulfate), was added to each well of the plate.
Retinoic acid (Sigma) was added at a concentration of 10^−6 M. 10 μl of one of these regulatory factor-containing solutions was added to each proliferative factor-containing well of the 96 well plates. Control wells, containing only proliferative factors, were also prepared. […]
IL-2, IL-6, IL-8, MIP-1∂, MIP-1β, MIP-2, TNFα and EGF additions were repeated every second day, CNTF which was added each day and retinoic acid, NGF and PDGF were added only once, at the beginning of the experiment. The cells were incubated for a period of 10-12 days. The number of neurospheres in each well was counted and the resulting counts tabulated using Cricket Graph III. Other relevant information regarding sphere size and shape were also noted.

[2] = tested on: relatively quiescent neural stem cells in subependyma; experiment: 3H-thymidine kill, number of neurospheres formed in vitro (Example 26); format: in vivo, mouse
Method: As detailed in Example 26 below, an experiment was performed to determine whether the in vitro stem cell is derived from the constitutively proliferating population or from the quiescent population. Animals were treated in one of the following ways: […] Adult male CD1 mice were divided into 4 groups. Group A animals received a series of 3H-thymidine injections on day 0 (3 injections, 1 every 4 hours). Animals in groups B and C received a series of 3H-thymidine injections on day 0 followed by a second series of injections on day 2 or 4. Group D animals received injections of physiological saline instead of 3H-thymidine over the same time course as group A. Animals from all groups were sacrificed by cervical dislocation 16-20 hours following the last series of injections. Brains were removed and neural tissue obtained from the subependyma surrounding the lateral ventricles in the forebrain was dissociated and the neural cells cultured as described in Example 5. At 6 and 8 days in vitro, the total number of spheres was counted in each of the 35 mm wells.

[3] = tested on: constitutively proliferating subependymal cells; experiment: 3H-thymidine kill of constitutively proliferating subependymal cells, BrdU count (Example 24); format: in vivo, mouse; set-up: concentration or dose not given beside the values
Method: Adult male CD1 mice received a series of intraperitoneal injections of 3H-thymidine (0.8 ml per injection, specific activity 45-55 mCi/mmole, ICN Biomedical) on day 0 (3 injections, 1 every 4 hours) in order to kill the constitutively proliferating subependymal cells. On day 0.5, 1, 2, 4, 6, 8 or 12, animals received 2 BrdU injections 1 hour apart (see Example 25) and were sacrificed 0.5 hour after the last injection. In a second group of animals, 3H-thymidine injections were given on day 0 (3 injections, 1 every 4 hours), followed by an identical series of injections on day 2 or 4. Animals were allowed to survive for 8 days following the second series of injections ([…] and 12 respectively) at which time they received 2 injections of BrdU and were sacrificed 0.5 hours later. Animals were sacrificed and the brains were removed and processed as described in Example 25.

[4] = tested on: EGF-generated neurospheres; experiment: Effect of growth factors on neurosphere differentiation, immunocytochemistry (Example 8); format: cell-based, mouse
Method: Six to 8 days after the first passage, the neurospheres were removed and centrifuged at 400 r.p.m. The EGF-containing supernatant was removed and the pellet suspended in EGF-free complete medium containing 1% FBS. Neurospheres (approximately 0.5-1.0×10^6 cells/well) were plated on poly-L-ornithine-coated (15 μg/ml) glass coverslips in 24 well Nuclon (1.0 ml/well) culture dishes. After 24 hours in culture, the coverslips were transferred to 12 well (Costar) culture dishes containing complete medium containing 0.5% FBS. The medium was changed every 4-7 days. This differentiation procedure is referred to as the “Rapid Differentiation Paradigm” or RDP.
Six to 8 days after the first passage, the neurospheres were removed and centrifuged at 400 r.p.m. The EGF-containing media was removed and the pellet was suspended in EGF-free complete medium containing 1% FBS. The neurospheres were mechanically dissociated into single cells with a fire-polished Pasteur pipette and centrifuged at 800 r.p.m. for 5 minutes. Between 0.5×10^6 and 1.0×10^6 cells were plated on poly-L-ornithine-coated (15 μg/ml) glass coverslips in 24 well Nuclon (1.0 ml/well) culture dishes. The EGF-free culture medium containing 1% FBS was changed every 4-7 days.
Neurospheres were washed free of EGF by serial transfers through changes of EGF-free medium. A single neurosphere was plated onto poly-L-ornithine-coated (15 μg/ml) glass coverslips in a 24-well plate. The culture medium used was complete medium with or without I % FBS. The medium was changed every 4-7 days.
Neurospheres were washed free of EGF by serial transfers through changes of EGF-free medium. A single neurosphere was mechanically dissociated in a 0.5 ml Eppendorf centrifuge tube and all the cells were plated onto a 35 mm culture dish. Complete medium was used with or without 1% FBS.
The effects of CNTF, FGF-2, BDNF, and retinoic acid on neurosphere differentiation were tested using the differentiation paradigms set forth in Example 7.
The effect of CNTF was assayed in paradigms 1 and 3. For both paradigms, CNTF was added either at the beginning of the experiment at a concentration of 10 ng/ml or daily at a concentration of 1 ng/ml.
Three different antibodies directed against 04, galactocerebroside (GalC) and MBP were used to study the effect of CNTF on the oligodendrocytes of paradigm 1. CNTF had no effect on the number of 04(+) cells, but there was an increase in the number of GalC(+) and MBP(+) cells compared with the control. Thus it appears that CNTF plays a role in the maturation of oligodendrocytes.
The effect of FGF-2 was tested using paradigms 2 and 4. In paradigm 2, 20 ng/ml of FGF-2 was added at the beginning of the experiment and cells were stained 7 days later. FGF-2 increased the number of GFAP(+) cells and the number of NSE(+) cells.
In paradigm 4, 20 ng/ml of FGF-2 was added at the beginning of the experiment and assayed 7-10 days later. […] It induced two different cell types to divide, neuroblasts and bipotential progenitor cells. The neuroblast produced, on average, 6 neurons while the bipotential cell produced approximately 6 neurons and a number of astrocytes.

[5] = PROLIFERATIVE FACTOR EGF 20 ng/ml
[6] = PROLIFERATIVE FACTOR bFGF 20 ng/ml
[7] = PROLIFERATIVE FACTORS EGF + bFGF + Heparan
[8] = PROLIFERATIVE FACTORS EGF + bFGF
[9] = PROLIFERATIVE FACTORS bFGF + Heparan
[10] = paradigm 1, CNTF 10 ng/ml at beginning or 1 ng/ml daily

Molecule: PDGF
- Numbers of neurospheres generated (#): decrease (−) or increase (+) per well compared with absence of the REGULATORY FACTOR [1, 5]: −1.5%
- Numbers of neurospheres generated (#): decrease (−) or increase (+) per well compared with absence of the REGULATORY FACTOR [1, 6]: −4%
- Numbers of neurospheres generated (#): decrease (−) or increase (+) per well compared with absence of the REGULATORY FACTOR [1, 7]: −27%
- Numbers of neurospheres generated (#): decrease (−) or increase (+) per well compared with absence of the REGULATORY FACTOR [1, 8]: −26%
- Numbers of neurospheres generated (#): decrease (−) or increase (+) per well compared with absence of the REGULATORY FACTOR [1, 9]: −10%
- numbers of neurospheres generated [1]: significantly reduced

Molecule: TNFα
- Numbers of neurospheres generated (#): decrease (−) or increase (+) per well compared with absence of the REGULATORY FACTOR [1, 5]: −17%
- Numbers of neurospheres generated (#): decrease (−) or increase (+) per well compared with absence of the REGULATORY FACTOR [1, 6]: −17%
- Numbers of neurospheres generated (#): decrease (−) or increase (+) per well compared with absence of the REGULATORY FACTOR [1, 7]: −37%
- Numbers of neurospheres generated (#): decrease (−) or increase (+) per well compared with absence of the REGULATORY FACTOR [1, 8]: −41%
- Numbers of neurospheres generated (#): decrease (−) or increase (+) per well compared with absence of the REGULATORY FACTOR [1, 9]: −21%
- numbers of neurospheres generated [1]: significantly reduced

Molecule: Cc1cn([C@H]2C[C@H](O)[C@@H](CO)O2)c(=O)[nH]c1=O [3H-thymidine]
- Number of Neurospheres produced in vitro relative to control ([2]; high doses on day 0): the same number of spheres
- Number of Neurospheres produced in vitro relative to control ([2]; high doses on day 0, listed as radioactive thymidine): 100%
- Number of Neurospheres produced in vitro relative to control ([2]; high doses on day 0 and day 2): 45%
- Number of Neurospheres produced in vitro relative to control ([2]; high doses on day 0 and day 2, listed as radioactive thymidine): 45%
- Number of Neurospheres produced in vitro relative to control ([2]; high doses on day 0 and day 4): not significantly different from control values
- Number of Neurospheres produced in vitro relative to control ([2]; high doses on day 0 and day 4, listed as radioactive thymidine): 85%
- proliferating subependymal population relative to controls ([3]; one kill on day 0, 8 days): 85%
- proliferating subependymal population relative to controls ([3]; one kill on day 0, 8 days, listed as radioactive thymidine): back to control levels
- proliferating subependymal population relative to controls ([3]; one kill on day 0, day 1 post-kill): 10%
- proliferating subependymal population relative to controls ([3]; second kill on day 2, 8 days later): 45%
- proliferating subependymal population relative to controls ([3]; second kill on day 2, 31 days after the second kill): 63%
- proliferating subependymal population relative to controls ([3]; second kill on day 4, 8 days later): return to control values
- proliferating subependymal population relative to controls ([3]; second kill on day 4, 8 days later, listed as radioactive thymidine): 85%

Molecule: CC1=C(/C=C/C(C)=C/C=C/C(C)=C/C(=O)O)C(C)(C)CCC1 [Retinoic Acid, retinoic acid, reference compound]
- Numbers of neurospheres generated (#): decrease (−) or increase (+) per well compared with absence of the REGULATORY FACTOR [1, 5]: −8%
- Size of neurospheres compared to PROLIFERATIVE FACTORS alone ([1]; PROLIFERATIVE FACTOR bFGF): −
- Numbers of neurospheres generated (#): decrease (−) or increase (+) per well compared with absence of the REGULATORY FACTOR [1, 6]: −61%
- Numbers of neurospheres generated (#): decrease (−) or increase (+) per well compared with absence of the REGULATORY FACTOR [1, 7]: −45%
- Numbers of neurospheres generated (#): decrease (−) or increase (+) per well compared with absence of the REGULATORY FACTOR [1, 8]: −31%
- Numbers of neurospheres generated (#): decrease (−) or increase (+) per well compared with absence of the REGULATORY FACTOR [1, 9]: −65%

Molecule: heparan sulfate [reference compound]
- Numbers of neurospheres generated (#): decrease (−) or increase (+) per well compared with absence of the REGULATORY FACTOR [1, 5]: 0%
- Size of neurospheres compared to PROLIFERATIVE FACTORS alone ([1]; PROLIFERATIVE FACTOR bFGF): ++
- Numbers of neurospheres generated (#): decrease (−) or increase (+) per well compared with absence of the REGULATORY FACTOR [1, 6]: 0%
- Numbers of neurospheres generated (#): decrease (−) or increase (+) per well compared with absence of the REGULATORY FACTOR [1, 8]: 0%
- increase in size of the neurospheres formed in response to bFGF ([1]; added to bFGF): about 400%
- size of neurospheres relative to those which occur in response to EGF ([1]; heparan sulfate 2 μg/ml added to bFGF generated spheres): approximately 70%

B1: CNTF: ciliary neurotrophic factor (protein, UniProt P26441 1-200, looked up)
Ciliary neurotrophic factor: MAFTEHSPLTPHRRDLCSRSIWLARKIRSDLTALTESYVKHQGLNKNINLDSADGMPVASTDQWSELTEAERLQENLQAYRTFHVLLARLLEDQQVHFTPTEGDFHQAIHTLLLQVAAFAYQIEELMILLEYKIPRNEADGMPINVGDGGLFEKKLWGLKVLQELSQWTVRSIHDLRFISSHQTGIPARGSHYIANNKKM
- Size of neurospheres compared to PROLIFERATIVE FACTORS alone ([1]; PROLIFERATIVE FACTOR EGF): −
- Numbers of neurospheres generated (#): decrease (−) or increase (+) per well compared with absence of the REGULATORY FACTOR [1, 5]: −23%
- Numbers of neurospheres generated (#): decrease (−) or increase (+) per well compared with absence of the REGULATORY FACTOR [1, 6]: −77%
- Numbers of neurospheres generated (#): decrease (−) or increase (+) per well compared with absence of the REGULATORY FACTOR [1, 7]: −84%
- Numbers of neurospheres generated (#): decrease (−) or increase (+) per well compared with absence of the REGULATORY FACTOR [1, 8]: −81%
- Size of neurospheres compared to PROLIFERATIVE FACTORS alone [1, 9]: −
- Numbers of neurospheres generated (#): decrease (−) or increase (+) per well compared with absence of the REGULATORY FACTOR [1, 9]: −81%
- numbers of neurospheres generated [1]: significantly reduced
- number of GalC(+) cells compared with control ([4]; paradigm 1): increase
- number of MBP(+) cells compared with control ([4]; paradigm 1): increase
- number of O4(+) cells ([4]; paradigm 1): no effect
- number of NSE-immunoreactive cells [4, 10]: increased
- number of tau-1-immunoreactive cells [4, 10]: increased
- number of cells containing GABA and substance P ([4]; paradigm 1, preliminary testing): no increase
- proliferation of flat, protoplasmic astrocytes ([4]; paradigm 1 without serum): increase
- number of NSE(+) cells ([4]; paradigm 3, CNTF): increase
